Data reported in patent publication US12440496B2, “Natriuretic peptide receptor a agonists useful for the treatment of cardiometabolic diseases, kidney disease and diabetes” (Merck Sharp & Dohme LLC, priority 2019, dated 2025).

Target: T1, hNPRA (Homo sapiens, UniProt P16066)
T1 construct: expressed in transfected cells
T1 sequence (P16066 33-1061): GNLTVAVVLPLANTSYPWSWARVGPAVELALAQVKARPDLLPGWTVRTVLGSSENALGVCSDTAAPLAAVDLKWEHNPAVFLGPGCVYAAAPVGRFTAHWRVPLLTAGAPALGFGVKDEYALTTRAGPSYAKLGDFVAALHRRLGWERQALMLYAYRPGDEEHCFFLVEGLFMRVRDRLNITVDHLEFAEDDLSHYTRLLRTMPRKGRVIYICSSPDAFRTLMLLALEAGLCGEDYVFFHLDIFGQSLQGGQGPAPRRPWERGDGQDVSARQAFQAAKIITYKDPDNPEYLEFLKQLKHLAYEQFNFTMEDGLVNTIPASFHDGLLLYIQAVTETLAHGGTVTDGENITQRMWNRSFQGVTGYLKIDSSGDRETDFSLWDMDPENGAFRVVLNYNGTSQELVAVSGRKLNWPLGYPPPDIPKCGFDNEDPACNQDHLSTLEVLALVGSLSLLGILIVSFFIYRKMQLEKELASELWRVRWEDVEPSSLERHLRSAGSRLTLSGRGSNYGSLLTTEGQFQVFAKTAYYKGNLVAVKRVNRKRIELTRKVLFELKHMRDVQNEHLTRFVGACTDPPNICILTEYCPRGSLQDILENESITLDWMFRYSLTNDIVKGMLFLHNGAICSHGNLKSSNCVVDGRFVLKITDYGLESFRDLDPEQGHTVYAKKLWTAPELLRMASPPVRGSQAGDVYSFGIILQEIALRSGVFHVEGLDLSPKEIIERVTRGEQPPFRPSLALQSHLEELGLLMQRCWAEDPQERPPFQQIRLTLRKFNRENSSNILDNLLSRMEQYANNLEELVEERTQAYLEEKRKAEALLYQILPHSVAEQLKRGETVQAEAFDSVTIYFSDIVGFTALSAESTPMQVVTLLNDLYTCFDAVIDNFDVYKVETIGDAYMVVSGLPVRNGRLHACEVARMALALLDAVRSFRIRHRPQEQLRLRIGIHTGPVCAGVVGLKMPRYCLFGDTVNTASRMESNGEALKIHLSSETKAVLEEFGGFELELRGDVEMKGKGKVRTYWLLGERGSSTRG
Assay: NPRA Functional Cell Assay (cGMP HTRF, NPRA HEK JumpIn stable cells)
Format: cell-based
Details: cGMP production, 1 hour at 37° C., 10-point dose response
In short: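 cGMP HTRF read-out after 1 hour compound treatment at 37° C. of human NPRA-expressing HEK JumpIn cells, 1500 cells/well, in buffer with phosphodiesterase inhibitors IBMX and RO20 (100 uM each). Signal converted to [cGMP] by calibration curve; EC50s fitted by 4-parameter logistic; 50 nM h-ANP as positive response.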

Structure (SMILES) | EC50
CN(CC[C@@H](NC(=O)c1nc2cc3c(nc2s1)CC[C@H](C(C)(C)C)C3)c1ccc(NS(=O)(=O)N(C)C)nc1)Cc1ccn[nH]1 (racemic) [Example 214, methyl-(1H-pyrazol-5-ylmethyl)-[rac-(3R)-3-[6-(dimethylsulfamoylamino)-3-pyridyl]-3-[rac-(7S)-7-tert-butyl-5,6,7,8-tetrahydrothiazolo[5,4-b]quinoline-2-carbonyl]amino]propyl]ammonium; 2,2,2-trifluoroacetate] | 1240 nM
CC(C)(C)[C@H]1CCc2nc3sc(C(=O)N[C@H](CCN4CCC(C#N)CC4)c4ccc(-c5ccc(=O)[nH]c5)cc4)cc3cc2C1 (racemic) [Example 68, rac-(6S)-6-tert-butyl-N-[rac-(1R)-3-(4-cyanopiperidin-1-ium-1-yl)-1-[4-(6-oxo-1H-pyridin-3-yl)phenyl]propyl]-5,6,7,8-tetrahydrothieno[2,3-b]quinoline-2-carboxamide;formate] | 1810 nM
CC(C)(C)[C@H]1CCc2nc3sc(C(=O)NC(CCN4CCOCC4)c4ccccc4)cc3cc2C1 (stereo partly drawn) [Example 243, (6S)-6-tert-butyl-N-(3-morpholin-4-yl-1-phenylpropyl)-5,6,7,8-tetrahydrothieno[2,3-b]quinoline-2-carboxamide] | 6320 nM
CC(C)(C)[C@H]1CCc2nc3sc(C(=O)N[C@H](CCN(CCO)CCO)c4ccc(-c5ccc(=O)[nH]c5)cc4)cc3cc2C1 (racemic) [Example 34, rac-(6S)-6-tert-butyl-N-[rac-(1R)-3-[bis(2-hydroxyethyl)amino]-1-[4-(6-oxo-1H-pyridin-3-yl)phenyl]propyl]-5,6,7,8-tetrahydrothieno[2,3-b]quinoline-2-carboxamide] | 530 nM
CC(C)(C)[C@H]1CCc2nc3sc(C(=O)N[C@H](CCN4CCC(O)CC4)c4cccc(NC(=O)CCN)c4)nc3cc2C1 (racemic) [Example 119, [3-oxo-3-[3-[rac-(1R)-3-(4-hydroxy-1-piperidyl)-1-[[rac-(7S)-7-tert-butyl-5,6,7,8-tetrahydrothiazolo [5,4-b]quinoline-2-carbonyl]amino]propyl]anilino]propyl]ammonium; 2,2,2-trifluoroacetate] | 1210 nM
Cc1n[nH]cc1-c1ccc([C@@H](CCN2CCC(O)CC2)NC(=O)c2nc3cc4c(nc3s2)CC[C@H](C(C)(C)C)C4)cc1 (racemic) [Example 171, rac-(7S)-7-tert-butyl-N-[rac-(1R)-3-(4-hydroxy-1-piperidyl)-1-[4-(3-methyl-1H-pyrazol-4-yl)phenyl]propyl]-5,6,7,8-tetrahydrothiazolo[5,4-b]quinoline-2-carboxamide] | 913 nM
CN(CC[C@@H](NC(=O)c1nc2cc3c(nc2s1)CC[C@H](C(C)(C)C)C3)c1ccc(NS(=O)(=O)N(C)C)nc1)CC1(O)CC1 (racemic) [Example 209, (1-hydroxycyclopropyl)methyl-methyl-[rac-(3R)-3-[6-(dimethylsulfamoylamino)-3-pyridyl]-3-[[rac-(7S)-7-tert-butyl-5,6,7,8-tetrahydrothiazolo[5,4-b]quinoline-2-carbonyl]amino]propyl]ammonium; 2,2,2-trifluoroacetate] | 735 nM
CC(C)(C)[C@H]1CCc2nc3sc(C(=O)N[C@H](CCN4CCC(O)CC4)c4ccc(-c5cnsc5)cc4)nc3cc2C1 (racemic) [Example 180, rac-(7S)-7-tert-butyl-N-[rac-(1R)-3-(4-hydroxy-1-piperidyl)-1-(4-isothiazol-4-ylphenyl)propyl]-5,6,7,8-tetrahydrothiazolo[5,4-b]quinoline-2-carboxamide] | 1440 nM
CC(C)(C)[C@H]1CCc2nc3sc(C(=O)N[C@H](CCN4CCC(O)CC4)c4ccc(-n5cncn5)cc4)nc3cc2C1 [Example 84, (7S)-7-tert-butyl-N-[(1R)-3-(4-hydroxy-piperidin-1-ium-1-yl)-1-[4-(1,2,4-triazol-1-yl)phenyl]propyl]-5,6,7,8-tetra-hydrothiazolo[5,4-b] quinoline-2-carboxamide; 2,2,2-trifluoro-acetate] | 802 nM
CC(C)(C)[C@H]1CCc2nc3sc(C(=O)N[C@H](CCN4CCC[C@H]4CO)c4ccc(-c5ccc(=O)[nH]c5)cc4)cc3cc2C1 (racemic) [Example 38, rac-(6S)-6-tert-butyl-N-[rac-(1R)-1-[4-(6-oxo-1H-pyridin-3-yl)phenyl]-3-[rac-(2S)-2-(hydroxymethyl)pyrrolidin-1-ium-1-yl]propyl]-5,6,7,8-tetrahydrothieno[2,3-b]quinoline-2-carboxamide;formate] | 582 nM
CC(C)(C)[C@H]1CCc2nc3sc(C(=O)N[C@H](CCN4CCC(n5ncnn5)CC4)c4ccc(-c5ccc(=O)[nH]c5)cc4)cc3cc2C1 (racemic) [Example 35, rac-(6S)-6-tert-butyl-N-[rac-(1R)-1-[4-(6-oxo-1H-pyridin-3-yl)phenyl]-3-[4-(tetrazol-2-yl)piperidin-1-ium-1-yl]propyl]-5,6,7,8-tetrahydrothieno[2,3-b]quinoline-2-carboxamide;formate] | 535 nM
CC(C)[C@]1(F)CCc2nc3sc(C(=O)N[C@H](CCN4CCC(C(=O)O)CC4)c4ccc(-c5ccnnc5)nc4)nc3cc2C1 [Example 270, 1-((R)-3-((S)-7-fluoro-7-isopropyl-5,6,7,8-tetrahydrothiazolo[5,4-b]quinoline-2-carboxamido)-3-(6-(pyridazin-4-yl)pyridin-3-yl)propyl)piperidine-4-carboxylic acid] | 1210 nM

Other lines, results leading:

EC50 | Structure (SMILES)
142 nM | CC(C)(C)[C@H]1CCc2nc3sc(C(=O)N[C@H](CCN4CCC(O)CC4)c4cnc(-c5ccnnc5)c(F)c4)nc3cc2C1 [Example 266, (S)-7-(tert-butyl)-N-((R)-1-(5-fluoro-6-(pyridazin-4-yl)pyridin-3-yl)-3-(4-hydroxypiperidin-1-yl)propyl)-5,6,7,8-tetrahydrothiazolo[5,4-b]quinoline-2-carboxamide]
384 nM | CC(C)[C@]1(F)CCc2nc3sc(C(=O)N[C@H](CCN4CCC(O)CC4)c4ccc(N5CC(=O)NC5=O)nc4)nc3cc2C1 [Example 219, (S)-N-((R)-1-(6-(2,4-dioxoimidazolidin-1-yl)pyridin-3-yl)-3-(4-hydroxypiperidin-1-yl)propyl)-7-fluoro-7-isopropyl-5,6,7,8-tetrahydrothiazolo[5,4-b]quinoline-2-carboxamide]
526 nM | CN1CC(NC(=O)c2cccc([C@@H](CCN3CCC(c4cccc(C(=O)O)c4)CC3)NC(=O)c3nc4cc5c(nc4s3)CC[C@H](C(C)(C)C)C5)c2)C1 (racemic) [Example 107, 3-[1-[rac-(3R)-3-[3-[(1-methylazetidin-1-ium-3-yl)carbamoyl]phenyl]-3-[rac-(7S)-7-tert-butyl-5,6,7,8-tetrahydrothiazolo[5,4-b]quinoline-2-carbonyl]amino]propyl]-4-piperidyl]benzoic acid; 2,2,2-trifluoroacetate]
271 nM | CN(C)CC[C@@H](NC(=O)c1nc2cc3c(nc2s1)CC[C@H](C(C)(C)C)C3)c1cccc(C(=O)N[C@@H]2CNC[C@H]2O)c1 (racemic) [Example 90, rac-(7S)-7-tert-butyl-N-[rac-(1R)-3-(dimethylamino)-1-[3-[[rac-(3R,4R)-4-hydroxypyrrolidin-3-yl]carbamoyl]phenyl]propyl]-5,6,7,8-tetrahydrothiazolo[5,4-b] quinoline-2-carboxamide]
233 nM | CC(C)(C)[C@H]1CCc2nc3sc(C(=O)N[C@H](CCN4CCCCC4)c4ccc(-c5ccc(O)nc5)cc4)cc3cc2C1 (racemic) [Example 1, ammonium;5-[4-[rac-(1R)-3-(1-piperidyl)-1-[[rac-(6S)-6-tert-butyl-5,6,7,8-tetrahydrothieno[2,3-b]quinoline-2-carbonyl]amino]propyl]phenyl]yridine-2-olate]
258 nM | CN1CCC(CNC(=O)c2cccc([C@@H](CCN3CCC(O)CC3)NC(=O)c3nc4cc5c(nc4s3)CC[C@H](C(C)(C)C)C5)c2)C1 (mixture of isomers) [Example 142, rac-(7S)-7-tert-butyl-N-[rac-(1R)-3-(4-hydroxy-1-piperidyl)-1-[3-[(1-methylpyrrolidin-3-yl)methylcarbamoyl]phenyl]propyl]-5,6,7,8-tetrahydrothiazolo[5,4-b]quinoline-2-carboxamide]
